Test results reported in US20100303916A1, “ENHANCED DRUG DELIVERY WITH ORIENTABLE PARTICLES” (THE GOVERNORS OF THE UNIVERSITY OF ALBERTA, priority 2007, published 2010).

Assay: Aerosol particle size distribution and number concentration by SEM
Format: physicochemical
Conditions: mean ± SD, n = 9 SEM images
Description: The particle size distribution and number concentration of the CA and CA/magnetite aerosols were determined from samples taken from the delivery apparatus used for the aerosol deposition experiments. Suspensions of CA and CA/magnetite were nebulized, and drawn by vacuum pump along with ambient, drying air at 10 l/min. into a large volume (˜16 1) delivery chamber for 1.5 minutes. With reference to FIG. 5, after filling the delivery chamber 40 with aerosol, valves 46, 48 connecting to the nebulizer 42 and the vacuum pump 44, respectively, were closed, and a butterfly valve 50 at the base 52 of the chamber 40 was opened. Aerosol was then sampled from the base 52 of the chamber 40 onto a 0.2 μm pore polycarbonate membrane (Isopore GTTP04700; Millipore, Billerica, Mass., not shown) for 1 hour at a flow rate of 0.21 l/min., maintained through the delivery chamber using dry, compressed air and a needle valve, and monitored using a low flow rate rotameter (FL-2010; OMEGA Canada, Laval, QC). Over the period of the sampling, the needle valve was adjusted as required to hold the flow rate to within 0.21±0.02 l/min.
After collecting aerosol from the delivery chamber, samples of the polycarbonate membranes were prepared for analysis by scanning electron microscopy (SEM) (S-2500; Hitachi, Japan). For both the CA and CA/magnetite aerosols, three pieces were cut from the membrane, from locations chosen at random, and mounted to SEM stubs using two-sided carbon adhesive tabs. These samples were sputter coated with a thin layer of gold prior to SEM analysis. Images of the samples were taken at 3000× magnification, again from locations chosen at random, and stored digitally.
For three SEM images from each of the three membrane samples, the length and diameter of each particle was manually measured using digital image analysis software (Scion Image; Scion Corporation, Frederick, Md.). The particles were assumed to lie parallel to the face of the membrane. Particle sizing rules were similar to those established for asbestos samples by Platek et al. (1992). Each particle was marked immediately after being sized so as to avoid sizing the same particle twice. Where a particle was not perfectly straight, its length was measured as the arc length along its central axis from one tip to the other. Diameter was measured perpendicular to the central axis at the midpoint along a particle's length, except in rare cases where the particle had two regions of clearly different diameter. In these latter cases, an average of the two diameters was taken. Overlapping particles were sized separately only if both ends of each particle were clearly visible.
After sizing, the volume of each particle was calculated, under the approximation that the particles were cylindrical. Volume-weighted size distributions were then fit with lognormal curves by nonlinear regression to yield a volume median length (VML), volume median diameter (VMD), and geometric standard deviations in both length and diameter (σL and σD), respectively) for each SEM image. In addition, the particle number concentration in the sampled air was calculated for each image from the volume of sampled air, and the ratio between the image area and the total area of the membrane exposed to the aerosol. The mean values of these parameters for the three different membrane samples were compared by one-way ANOVA for independent samples in order to gauge their variation over different locations on the membrane.

- VMD (volume median diameter) (aerosol sampled from delivery chamber): 0.34 ± 0.02 μm
- N (number of particles per unit volume of sampled air): (2.0 ± 0.3) × 10^4 cm^−3
- VML (volume median length): 2.0 ± 0.4 μm
- σD (geometric standard deviation for diameter): 1.5 ± 0.1
- σL (geometric standard deviation for length): 2.1 ± 0.1
Compound: O=C(O)c1cc(=O)c2c(OCC(O)COc3cccc4oc(C(=O)O)cc(=O)c34)cccc2o1 [CA, cromoglycic acid]
